Measurements: US10072025B2, “Ethyl N-boc piperidinyl pyrazolo pyridones as Janus kinase inhibitors” (Merck Sharp & Dohme Corp., priority 2014, dated 2018)
Read-outs that look alike come from different tables or passages of the source.

Experiments:
JAK2 = JAK2 (Homo sapiens (Human), UniProt O60674); test: Jak Biochemical HTRF Assay (JAK2); details: recombinant purified GST-tagged catalytic domain, [ATP] 8.5 μM, [E] 0.052 nM
Method: (§1) Jak Biochemical HTRF Assay Protocol
(§2) The ability of compounds to inhibit the activity of JAK1, JAK2, JAK3, and Tyk2 was measured using a recombinant purified GST-tagged catalytic domain for each enzyme (Invitrogen JAK1 #M4290, JAK2 #M4290, JAK3 #M4290, Tyk2 #M4290) in an HTRF format biochemical assay. […] The basic assay protocol is as follows: First, 250 nL of diluted compounds in DMSO were dispensed into the wells of a dry 384-well Black plate (Greiner #781076) using a Labcyte Echo 555 acoustic dispenser. Subsequent reagent additions employed an Agilent Bravo. Next, 18 μL of 1.11× enzyme and 1.11× substrate in 1× assay buffer (Invitrogen kinase buffer # PV3189, 2 mM DTT, 0.05% BSA) were added to the wells and shaken and then preincubated for 30 minutes at room temperature to allow compound binding to equilibrate. After equilibration, 2 μL of 10×ATP in 1× assay buffer was added to initiate the kinase reaction and the plates were shaken and then incubated at room temperature for 120 minutes. At the end of the incubation, 20 μL of 2× stop buffer (streptavidin-Dylight 650 (Thermo #84547B/100 mL), Eu-tagged pY20 antibody (Perkin Elmer #AD0067), EDTA, HEPES, and Triton) was added to quench the reaction. Plates were shaken and centrifuged and then incubated 60 minutes at room temperature and then read on a Perkin Elmer Envision (Xex=337 nm, λem=665 and 615 nm, TRF delay time=20 μs). HTRF signal=10,000*665 nm reading/615 nm reading. After normalization to untreated controls, the percent inhibition of the HTRF signal at each compound concentration was calculated. The plot of percent inhibition versus the log of compound concentration was fit with a 4-parameter dose response equation to calculate IC50 values.

JAK1 = JAK1 (Homo sapiens (Human), UniProt P23458); test: Jak Biochemical HTRF Assay (JAK1)
Chain of JAK1 (P23458 875-1153): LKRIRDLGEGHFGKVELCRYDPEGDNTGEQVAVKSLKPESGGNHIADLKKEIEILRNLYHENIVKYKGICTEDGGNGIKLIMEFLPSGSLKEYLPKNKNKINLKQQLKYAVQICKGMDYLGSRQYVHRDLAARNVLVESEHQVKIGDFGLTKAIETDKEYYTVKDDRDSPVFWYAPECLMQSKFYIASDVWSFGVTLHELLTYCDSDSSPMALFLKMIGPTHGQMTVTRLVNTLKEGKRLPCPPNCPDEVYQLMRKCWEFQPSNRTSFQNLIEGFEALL
Method: as §1, §2

[1] = recombinant purified GST-tagged catalytic domain, HTRF, [ATP] 31.8 μM, [E] 1.405 nM

Chain of JAK2 (O60674 849-1124): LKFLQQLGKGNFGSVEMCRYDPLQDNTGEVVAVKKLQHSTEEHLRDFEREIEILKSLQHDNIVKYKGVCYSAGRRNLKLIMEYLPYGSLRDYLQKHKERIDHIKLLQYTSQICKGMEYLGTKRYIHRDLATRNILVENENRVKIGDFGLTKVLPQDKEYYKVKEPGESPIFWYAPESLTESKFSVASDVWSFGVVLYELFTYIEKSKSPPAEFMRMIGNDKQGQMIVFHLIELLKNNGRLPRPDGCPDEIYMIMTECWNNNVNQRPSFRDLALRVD

| IC50 (JAK2) | IC50 (JAK1; [1]) | SMILES | IC50 (JAK1) |
| --- | --- | --- | --- |
| 2.91 nM | 0.9 nM | CCC1(n2nc(Nc3ccc(C(O)C(F)(F)F)cc3)c3c(=O)[nH]ccc32)CCN(C(=O)OC(C)(C)C)CC1 (stereo not drawn) [Example 2-43, tert-butyl 4-ethyl-4-(4-oxo-3-((4-(2,2,2-trifluoro-1-hydroxyethyl)phenyl)amino)-4,5-dihydro-1H-pyrazolo[4,3-c]pyridin-1-yl) piperidine-1-carboxylate] | – |
| 0.8 nM | 0.25 nM | CCC1(n2nc(Nc3ccc(C(=O)N4CCOC(=O)C4)c(C)c3)c3c(=O)[nH]ccc32)CCN(C(=O)OC(C)(C)C)CC1 [Example 3-1, tert-butyl-4-ethyl-4-(3-((3-methyl-4-(2-oxomorpholine-4-carbonyl)phenyl)amino)-4-oxo-4,5-dihydro-1H-pyrazolo[4,3-c]pyridin-1-yl)piperidine-1-carboxylate] | – |
| 0.75 nM | 0.61 nM | CCC1(n2nc(Nc3ccc(C(=O)N4CCOC(C)(C)C4)c(C)c3)c3c(=O)[nH]ccc32)CCN(C(=O)OC(C)(C)C)CC1 [Example 3-2, tert-butyl 4-[3-({4-[(2,2-dimethylmorpholin-4-yl)carbonyl]-3-methylphenyl}amino)-4-oxo-4,5-dihydro-1H-pyrazolo[4,3-c]pyridin-1-yl]-4-ethylpiperidine-1-carboxylate] | – |
| 1.53 nM | 0.99 nM | CCC1(n2nc(Nc3ccc(C(=O)N4CCOC5(CCCC5)C4)c(C)c3)c3c(=O)[nH]ccc32)CCN(C(=O)OC(C)(C)C)CC1 [Example 3-3, tert-butyl 4-ethyl-4-(3-{[3-methyl-4-(6-oxa-9-azaspiro[4.5]dec-9-ylcarbonyl)phenyl]amino}-4-oxo-4,5-dihydro-1H-pyrazolo[4,3-c]pyridin-1-yl) piperidine-1-carboxylate] | – |
| 1.17 nM | 1.09 nM | CCC1(n2nc(Nc3ccc(C(=O)N4C[C@@H](C)O[C@@H](C)C4)c(C)c3)c3c(=O)[nH]ccc32)CCN(C(=O)OC(C)(C)C)CC1 [Example 3-4, tert-butyl 4-{3-[(4-{[(2R,6S)-2,6-dimethylmorpholin-4-yl]carbonyl}-3-methylphenyl)amino]-4-oxo-4,5-dihydro-1H-pyrazolo[4,3-c]pyridin-1-yl}-4-ethylpiperidine-1-carboxylate] | – |
| 1.21 nM | 0.73 nM | CCC1(n2nc(Nc3ccc(C(=O)N4CCOCC4(C)C)c(C)c3)c3c(=O)[nH]ccc32)CCN(C(=O)OC(C)(C)C)CC1 [Example 3-5, tert-butyl 4-[3-({4-[(3,3-dimethylmorpholin-4-yl)carbonyl]-3-methylphenyl}amino)-4-oxo-4,5-dihydro-1H-pyrazolo[4,3-c]pyridin-1-yl]-4-ethylpiperidine-1-carboxylate] | – |
| 0.63 nM | 0.52 nM | CCC1(n2nc(Nc3ccc(C(=O)N4C[C@H](C)O[C@@H](C)C4)c(C)c3)c3c(=O)[nH]ccc32)CCN(C(=O)OC(C)(C)C)CC1 [Example 3-7, tert-butyl 4-{3-[(4-{[(2S,6S)-2,6-dimethylmorpholin-4-yl]carbonyl}-3-methylphenyl)amino]-4-oxo-4,5-dihydro-1H-pyrazolo[4,3-c]pyridin-1-yl}-4-ethylpiperidine-1-carboxylate] | – |
| 1.05 nM | 0.79 nM | CCC1(n2nc(Nc3ccc(C(=O)N4CCCSCC4)c(C)c3)c3c(=O)[nH]ccc32)CCN(C(=O)OC(C)(C)C)CC1 [Example 3-9, tert-butyl 4-ethyl-4-(3-{[3-methyl-4-(1,4-thiazepan-4-ylcarbonyl)phenyl]amino}-4-oxo-4,5-dihydro-1H-pyrazolo[4,3-c]pyridin-1-yl) piperidine-1-carboxylate] | – |
| 0.43 nM | 0.29 nM | CCC1(n2nc(Nc3ccc(C(=O)N4CCCOCC4)c(C)c3)c3c(=O)[nH]ccc32)CCN(C(=O)OC(C)(C)C)CC1 [Example 3-10, tert-butyl 4-ethyl-4-(3-{[3-methyl-4-(1,4-oxazepan-4-ylcarbonyl)phenyl]amino}-4-oxo-4,5-dihydro-1H-pyrazolo[4,3-c]pyridin-1-yl) piperidine-1-carboxylate] | – |
| 0.25 nM | 0.19 nM | CCC1(n2nc(Nc3ccc(C(=O)N4CC[S+]([O-])CC4)c(C)c3)c3c(=O)[nH]ccc32)CCN(C(=O)OC(C)(C)C)CC1 [Example 3-11, tert-butyl 4-ethyl-4-[3-({3-methyl-4-[(1-oxidothiomorpholin-4-yl)carbonyl]phenyl}amino)-4-oxo-4,5-dihydro-1H-pyrazolo[4,3-c]pyridin-1-yl]piperidine-1-carboxylate] | – |
| 0.68 nM | 0.56 nM | CCC1(n2nc(Nc3ccc(C(=O)N4CCC(N5CCSCC5)CC4)c(C)c3)c3c(=O)[nH]ccc32)CCN(C(=O)OC(C)(C)C)CC1 [Example 3-12, tert-butyl 4-ethyl-4-[3-({3-methyl-4-[(4-thiomorpholin-4-ylpiperidin-1-yl)carbonyl]phenyl}amino)-4-oxo-4,5-dihydro-1H-pyrazolo[4,3-c]pyridin-1-yl] piperidine-1-carboxylate] | – |
| 1.34 nM | 1.69 nM | CCC1(n2nc(Nc3ccc(C(=O)N4CCOC5CC54)c(C)c3)c3c(=O)[nH]ccc32)CCN(C(=O)OC(C)(C)C)CC1 (stereo not drawn) [Example 3-21, tert-butyl 4-ethyl-4-(3-{[3-methyl-4-(2-oxa-5-azabicyclo [4.1.0]hept-5-ylcarbonyl)phenyl]amino}-4-oxo-4,5-dihydro-1H-pyrazolo [4,3-c]pyridin-1-yl) piperidine-1-carboxylate] | – |

| SMILES | IC50 (JAK2) | IC50 (JAK1; [1]) | IC50 (JAK1) |
| --- | --- | --- | --- |
| CCC1(n2nc(Nc3ccc(C(=O)O)c(C)c3)c3c(=O)[nH]ccc32)CCN(C(=O)OC(C)(C)C)CC1 [Example 2-44, 4-((1-(1-(tert-butoxycarbonyl)-4-ethylpiperidin-4-yl)-4-oxo-4,5-dihydro-1H-pyrazolo [4,3-c]pyridin-3-yl)amino)-2-methylbenzoic acid] | 2.1 nM | 0.23 nM | – |
| CCC1(n2nc(Nc3ccc(C(=O)N4C[C@H]5C[C@@H](C4)O5)c(C)c3)c3c(=O)[nH]ccc32)CCN(C(=O)OC(C)(C)C)CC1 [Example 3-6, tert-butyl 4-ethyl-4-[3-({3-methyl-4-[(1R,5S)-6-oxa-3-azabicyclo[3.1.1]hept-3-ylcarbonyl]phenyl}amino)-4-oxo-4,5-dihydro-1H-pyrazolo[4,3-c]pyridin-1-yl]piperidine-1-carboxylate] | 0.43 nM | – | 0.3 nM |
| CCC1(n2nc(Nc3ccc(C(=O)N4CCOC[C@H]4C(C)C)c(C)c3)c3c(=O)[nH]ccc32)CCN(C(=O)OC(C)(C)C)CC1 [Example 3-8, tert-butyl 4-ethyl-4-{3-[(3-methyl-4-{[(3R)-3-(1-methylethyl)morpholin-4-yl]carbonyl}phenyl)amino]-4-oxo-4,5-dihydro-1H-pyrazolo[4,3-0]pyridin-1-yl} piperidine-1-carboxylate] | 1.01 nM | 0.93 nM | – |
